Values after ≈ are worked out from the molar mass of the structure shown.
Legend:
[1] = system: MRSA 252; assay: Disc diffusion (Kirby-Bauer), zone of inhibition; format: cell-based, Staphylococcus aureus; settings: Staphylococcus aureus, 500 μg/mL, '/' = no zone, read-out: Zone of inhibition
In short: (§1)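 Kirby-Bauer per CLSI 2017: 1 in 200 dilutions of overnight cultures (LB for Gram-negatives, TSB for Gram-positives) spread on Mueller-Hinton agar. Discs loaded with 50 μL antibiotic were added and plates incubated 24 h at 37 °C. Zone of inhibition recorded.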

[2] = system: MSSA 476; assay: Disc diffusion (Kirby-Bauer), zone of inhibition; format: cell-based, Staphylococcus aureus; settings: Staphylococcus aureus, 500 μg/mL, '/' = no zone, read-out: Zone of inhibition
In short: as §1

[3] = system: red blood cells; assay: Hemolysis assay (CO-ADD); format: cell-based; settings: 32 μg/mL highest concentration tested
Excerpt: A problem often encountered by emerging drugs is hemolysis, also known as drug-induced immune hemolytic anemia.

[4] = system: various Staphylococcus aureus strains; assay: Disc diffusion, Staphylococcus aureus strain study; format: cell-based; settings: Staphylococcus aureus, 500 μg/mL
Excerpt: At this point in the study it was decided to perform a disc diffusion assay study on 50 S. aureus strains. […] Moreover, by employing a range of mutant strains of S. aureus with specific gene-deletions, it was believed that if particular strains were resistant to the lead compounds, it could provide insights on the likely protein target of the lead antibiotics. However, all six of the compounds utilized in this study were able to inhibit growth of all 50 strains of S. aureus assayed at the chosen concentration of 500 μg/mL concentration (Table 5).
E. coli DH5α, P. aeruginosa PA01 and the 53 S. aureus strains were recovered from frozen (−80° C.) glycerol (15% v/v) stocks on Lysogeny agar (LA)—Gram negative and trypticase soy agar (TSA)—plates at 37° C. for 24 hours. Single colonies were placed in either 3 mL Lysogeny broth (LB)—Gram negative or trypticase soy broth (TSB)—Gram positive and incubated at 37° C., 250 rpm for 18 hours.
The antibiotic activity was determined using a Kirby-Bauer method according to Clinical Standard Laboratory Institute (CSLI) Guidelines (2017). Briefly, 180 μL of a 1 in 200 dilution (in LB or TSB) of overnight cultures of selected Gram negative and Gram positive bacteria were applied to an agar plate containing the solid growth medium, Mueller-Hinton agar (MHA). Sterile discs, inoculated with 50 μL of antibiotic, were first added to the agar plate before the plates were incubated for 24 hours at 37° C. Following incubation, the zone of inhibition (if it existed) was recorded.

[5] = system: Escherichia coli DH5α; assay: Disc diffusion (Kirby-Bauer), zone of inhibition; format: cell-based; settings: Escherichia coli DH5α; 500 μg/mL; '/' = no zone; read-out: Zone of inhibition
In short: as §1

[6] = system: Staphylococcus aureus 15981; assay: Disc diffusion (Kirby-Bauer), zone of inhibition; format: cell-based; settings: Staphylococcus aureus 15981; 500 μg/mL; '/' = no zone; read-out: Zone of inhibition
In short: as §1

[7] = system: HEK293 cells; assay: Cytotoxicity assay, resazurin (CO-ADD)
In short: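 HEK293 cells in DMEM with 10% FBS were exposed to compounds at a single concentration of 32 μg/mL for 20 h at 37° C, 5% CO2. Viability read by resazurin fluorescence (2.3 μg/mL final, 3 h; F560/590). CC50 from sigmoidal dose-response fitting.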

[8] = system: MRSA 252; assay: MIC, broth micro-dilution; format: cell-based, Staphylococcus aureus; settings: Staphylococcus aureus, read-out: MIC
In short: (§2)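 Broth micro-dilution followed CLSI 2017: 1:2 antibiotic dilutions in TSB were inoculated at 5×10^5 CFU/mL. OD was recorded every 12 min over 18 h at 37 °C, and MIC was derived from sigmoidal dose-response fits.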

[9] = system: MSSA 476; assay: MIC, broth micro-dilution; format: cell-based, Staphylococcus aureus; settings: Staphylococcus aureus, MSSA, read-out: MIC
In short: as §2

For `[C-]#[N+]C=Cc1ccc(O)c(Br)c1` [Compound 14], the zone of inhibition at 500 µg/mL [1] was 24 mm, the zone of inhibition at 500 µg/mL [2] was 24 mm and the “Hemolytic activity (HC10)” value [3] was greater than 32 µg/mL. For the same compound, the zone of inhibition at 500 µg/mL ([4]; strain ASARM 61) was 22 mm, the zone of inhibition at 500 µg/mL ([4]; strain ASARM 70) was 20 mm and the zone of inhibition at 500 µg/mL ([4]; strain ASARM 71) was 22 mm. The zone of inhibition at 500 µg/mL ([4]; strain ASARM 72) was 20 mm, the zone of inhibition at 500 µg/mL ([4]; strain ASARM 73) was 20 mm and the zone of inhibition at 500 µg/mL ([4]; strain ASARM 75) was 20 mm. For the same compound, the zone of inhibition at 500 µg/mL ([4]; strain ASARM 76) was 22 mm, the zone of inhibition at 500 µg/mL ([4]; strain ASARM 77) was 22 mm and the zone of inhibition at 500 µg/mL ([4]; strain ASARM 79) was 24 mm. The zone of inhibition at 500 µg/mL ([4]; strain ASARM 80) was 25 mm, the zone of inhibition at 500 µg/mL ([4]; strain EOE 3) was 20 mm and the zone of inhibition at 500 µg/mL ([4]; strain EOE 23) was 22 mm. It also gave a zone of inhibition at 500 µg/mL ([4]; strain EOE 30) of 22 mm, a zone of inhibition at 500 µg/mL ([4]; strain EOE 35) of 18 mm and a zone of inhibition at 500 µg/mL ([4]; strain EOE 41) of 20 mm. The zone of inhibition at 500 µg/mL ([4]; strain EOE 42) was 18 mm, the zone of inhibition at 500 µg/mL ([4]; strain EOE 45) was 20 mm and the zone of inhibition at 500 µg/mL ([4]; strain EOE 52) was 25 mm. It also gave a zone of inhibition at 500 µg/mL ([4]; strain EOE 54) of 19 mm, a zone of inhibition at 500 µg/mL ([4]; strain EOE 57) of 20 mm and a zone of inhibition at 500 µg/mL ([4]; strain S139_7_7) of 20 mm. For the same compound, the zone of inhibition at 500 µg/mL ([4]; strain S197_1_1) was 25 mm, the zone of inhibition at 500 µg/mL ([4]; strain S197_1_8) was 22 mm and the zone of inhibition at 500 µg/mL ([4]; strain S197_1_9) was 22 mm. The zone of inhibition at 500 µg/mL ([4]; strain S197_1_10) was 22 mm, the zone of inhibition at 500 µg/mL ([4]; strain S295_1_1) was 22 mm and the zone of inhibition at 500 µg/mL ([4]; strain S295_1_2) was 14 mm. The zone of inhibition at 500 µg/mL ([4]; strain S295_1_3) was 20 mm, the zone of inhibition at 500 µg/mL ([4]; strain S364_5_11) was 24 mm and the zone of inhibition at 500 µg/mL ([4]; strain S364_5_12) was 24 mm. The zone of inhibition at 500 µg/mL ([4]; strain Sa_TPS 3026) was 16 mm, the zone of inhibition at 500 µg/mL ([4]; strain Sa_TPS 3072) was 18 mm and the zone of inhibition at 500 µg/mL ([4]; strain Sa_TPS 3092) was 24 mm. It also gave a zone of inhibition at 500 µg/mL ([4]; strain Sa_TPS 3097) of 18 mm, a zone of inhibition at 500 µg/mL ([4]; strain Sa_TPS 3103) of 26 mm and a zone of inhibition at 500 µg/mL ([4]; strain Sa_TPS 3104) of 22 mm. It also gave a zone of inhibition at 500 µg/mL ([4]; strain Sa_TPS 3106) of 20 mm, a zone of inhibition at 500 µg/mL ([4]; strain Sa_TPS 3118) of 18 mm and a zone of inhibition at 500 µg/mL ([4]; strain Sa_TPS 3133) of 18 mm. The zone of inhibition at 500 µg/mL ([4]; strain Sa_TPS 3134) was 18 mm, the zone of inhibition at 500 µg/mL ([4]; strain USFL 008) was 17 mm and the zone of inhibition at 500 µg/mL ([4]; strain USFL 009) was 16 mm. For the same compound, the zone of inhibition at 500 µg/mL ([4]; strain USFL 012) was 20 mm, the zone of inhibition at 500 µg/mL ([4]; strain USFL 016) was 18 mm and the zone of inhibition at 500 µg/mL ([4]; strain USFL 018) was 18 mm. For the same compound, the zone of inhibition at 500 µg/mL ([4]; strain USFL 020) was 16 mm, the zone of inhibition at 500 µg/mL ([4]; strain USFL 021) was 18 mm and the zone of inhibition at 500 µg/mL ([4]; strain USFL 028) was 18 mm. For the same compound, the zone of inhibition at 500 µg/mL ([4]; strain USFL 035) was 19 mm, the zone of inhibition at 500 µg/mL ([4]; strain USFL 054) was 18 mm and the zone of inhibition at 500 µg/mL [5] was 26 mm. For the same compound, the zone of inhibition at 500 µg/mL [6] was 28 mm, the “Concentration toxic to HEK 293 cells” value ([7]; HEK 293) was greater than 32000 ng/mL and the “toxicity towards the HEK293 cell line (in words)” value ([7]; set concentration of 32 μg/mL) was “no toxicity”. It also gave an MIC [8] of 44 µg/mL (≈ 196 µM) and an MIC [9] of 242 µg/mL (≈ 1080 µM).
